# Test results from patent US9682960B2 (priority 2013, dated 2017).
# Values joined by “and” are separate entries in the source; they are usually repeats but may differ in a detail not shown here. Equal entries are not always repeated. Where two headings read alike, the source gives them in different places.
# Tests used:
# [1] = tested on: castrated (CX) immature male rats; test: Systemic androgenic (agonistic) activity in orchidectomized (CX) immature male rats; type: in vivo, rat; conditions: 0.1 mg/rat/po, 7 days; for CX Agonistic activity % Stimulation Bulbo: bulbocavernosus muscles weight; for CX Agonistic activity % Stimulation SV: seminal vesicles weight; for CX Agonistic activity % Stimulation Prostate: ventral prostate weight
# Description: Immature male rats (Crl:CD(SD)Br) 22 to 24-day old weighting 60-80 g at start of treatment were obtained from Charles-River, Inc. (St-Constant, Quebec, Canada) and housed up to 5 per cage in plastic bins in a temperature (23±1° C.)- and light (12 h light/day, lights on at 7 h15)-controlled environment. The rats were fed rodent chow and tap water ad libitum. […] The day following their arrival, the designed animals were orchidectomized (CX) under Isoflurane anesthesia (Study Day 1) via the scrotal route and were then randomly assigned to groups of 3 to 5 animals. At the time of orchidectomy, one silastic implant of dihydrotestosterone (DHT; 1 cm length of pure DHT in silastic tubing having inner and outer diameter of 0.078 and 0.125 inches, respectively), was inserted subcutaneously in the dorsal area of animals assigned to the evaluation of antiandrogenic activity. In the case of intact animal experiments, the orchidectomy and the silastic implant installation are omitted.
# Tested compounds were administered orally once daily for 7 days from Study Day 2 to Study Day 8 at doses generally ranging from 0.1 and 0.5 mg/animal. Compounds were either solubilized in dimethylsulfoxide (DMSO, 10% final concentration) and were administered as a solution/suspension in 0.9% NaCl-1% gelatin or were administered as suspensions in 0.4% aqueous methylcellulose. Animals of the control groups received the corresponding vehicle alone during the 7-day period. Some animals were treated with the antiandrogen Flutamide or Casodex as reference. The animals under isoflurane anesthesia were killed by cervical dislocation on day 9 of the study, approximately 24 h after the last dosing. The ventral prostate, seminal vesicles and bulbocavernosus muscles were rapidly dissected and weighed.
# For calculations with intact animals, control DHT is replaced by control intact and the % stimulation is subtracted by 100%. W is the weight of the prostate, seminal vesicles or bulbocavernosus muscles. Discussion
# [2] = tested on: Shionogi mouse mammary carcinoma cells; test: In vitro androgenic/antiandrogenic activity: proliferation of Shionogi cells with or without DHT; type: cell-based; conditions: Mus musculus
# [3] = target: Human Androgen Receptor (Homo sapiens (Human), UniProt P10275); test: Androgen receptor assay: [3H]R1881 displacement, cytosol of HEK-293 cells transfected with hAR (hydroxylapatite assay); type: binding; conditions: for Human Androgen Receptor Binding RBA (%) R1881 = 100: relative binding affinity
# Sequence of Human Androgen Receptor (P10275 whole entry): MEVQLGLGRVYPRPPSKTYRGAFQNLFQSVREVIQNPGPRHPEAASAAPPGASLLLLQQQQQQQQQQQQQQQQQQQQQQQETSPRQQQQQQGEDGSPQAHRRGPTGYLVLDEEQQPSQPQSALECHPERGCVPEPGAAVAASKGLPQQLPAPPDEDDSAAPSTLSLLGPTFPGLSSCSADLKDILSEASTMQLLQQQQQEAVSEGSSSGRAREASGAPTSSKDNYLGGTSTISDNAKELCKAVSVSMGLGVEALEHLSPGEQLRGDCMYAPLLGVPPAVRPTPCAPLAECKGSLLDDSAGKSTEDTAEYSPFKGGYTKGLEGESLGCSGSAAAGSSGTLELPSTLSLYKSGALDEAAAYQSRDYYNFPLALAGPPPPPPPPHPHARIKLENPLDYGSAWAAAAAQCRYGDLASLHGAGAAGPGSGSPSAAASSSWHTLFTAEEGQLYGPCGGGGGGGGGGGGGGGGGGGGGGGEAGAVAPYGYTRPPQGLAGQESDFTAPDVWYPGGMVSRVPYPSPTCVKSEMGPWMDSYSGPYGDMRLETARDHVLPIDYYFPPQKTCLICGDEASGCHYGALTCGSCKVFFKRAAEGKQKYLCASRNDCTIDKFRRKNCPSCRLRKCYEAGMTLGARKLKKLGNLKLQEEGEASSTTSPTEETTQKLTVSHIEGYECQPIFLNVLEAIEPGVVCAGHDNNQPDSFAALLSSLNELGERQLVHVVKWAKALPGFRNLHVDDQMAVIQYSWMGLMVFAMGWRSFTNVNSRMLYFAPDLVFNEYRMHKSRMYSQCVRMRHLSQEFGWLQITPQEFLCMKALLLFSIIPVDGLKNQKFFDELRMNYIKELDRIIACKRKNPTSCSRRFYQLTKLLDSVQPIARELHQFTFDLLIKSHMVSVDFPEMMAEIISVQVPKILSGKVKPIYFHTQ
# [4] = read-out: Shionogi Antiandrogenic Activity IC50, DHT (0.3 nM)-stimulated cell number
structure (smiles),measurement,setting,value
CC1(C)C(=O)N(c2ccc(C#N)c(C(F)(F)F)c2)C(=S)N1CCCOc1ccc2ncncc2c1 [EM-9010],CX Agonistic activity % Stimulation Bulbo,[1],5%
same,CX Agonistic activity % Stimulation SV,[1],0%
same,CX Agonistic activity % Stimulation Prostate,[1],0%
same,IC50,[2]; [4],10 nM
same,Human Androgen Receptor Binding RBA (%) R1881 = 100,[3]; […],29.5%
Cc1c(N2C(=O)N(CCCOc3ccc(-c4ccncc4)cc3)C(C)(C)C2=O)ccc(C#N)c1Cl [EM-9300],CX Agonistic activity % Stimulation Bulbo,[1],127 ± 8 (n = 2) %
same,CX Agonistic activity % Stimulation SV,[1],25 ± 2 (n = 2) %
same,CX Agonistic activity % Stimulation Prostate,[1],40 ± 3 (n = 2) %
same,IC50,[2]; [4],62.2 nM
same,Human Androgen Receptor Binding RBA (%) R1881 = 100,[3]; […],77.8%
Cc1c(N2C(=O)C(C)(C)N(CCCOc3ccc(-c4ccncc4)cc3F)C2=S)ccc(C#N)c1C(F)(F)F [EM-8793],CX Agonistic activity % Stimulation Bulbo,[1],139%
same,CX Agonistic activity % Stimulation SV,[1],42%
same,CX Agonistic activity % Stimulation Prostate,[1],29%
same,IC50,[2]; [4],48.2 nM
same,Human Androgen Receptor Binding RBA (%) R1881 = 100,[3]; transfected cells,412%
Cc1c(N2C(=O)C(C)(C)N(CCCOc3ccc(-c4cccnc4)cc3)C2=S)ccc(C#N)c1Cl [EM-8656],CX Agonistic activity % Stimulation Bulbo,[1],73%
same,CX Agonistic activity % Stimulation SV,[1],24%
same,CX Agonistic activity % Stimulation Prostate,[1],38%
same,IC50,[2]; [4],> 100 nM
same,Human Androgen Receptor Binding RBA (%) R1881 = 100,[3]; […],477 ± 16 (n = 2) %
Cc1c(N2C(=O)N(CCCOc3ccc(-c4cc[n+]([O-])cc4)cc3C(F)(F)F)C(C)(C)C2=O)ccc(C#N)c1Cl [EM-9319],CX Agonistic activity % Stimulation Bulbo,[1],110 ± 10 (n = 2) %
same,CX Agonistic activity % Stimulation SV,[1],17 ± 10 (n = 2) %
same,CX Agonistic activity % Stimulation Prostate,[1],39 ± 2 (n = 2) %
same,IC50,[2]; [4],97.8 nM
same,Human Androgen Receptor Binding RBA (%) R1881 = 100,[3]; […],9.6%
Cc1c(N2C(=O)C(C)(C)N(CCCOc3ccc(-c4cc[n+]([O-])cc4)cc3)C2=S)ccc(C#N)c1Cl [EM-8913],CX Agonistic activity % Stimulation Bulbo,[1],160%
same,CX Agonistic activity % Stimulation SV,[1],65%
same,CX Agonistic activity % Stimulation Prostate,[1],54%
same,IC50,[2]; [4],> 100 nM
same,Human Androgen Receptor Binding RBA (%) R1881 = 100,[3]; […],114%
Cc1c(N2C(=O)C(C)(C)N(CCCOc3ccc(-c4ccncc4)cc3Cl)C2=S)ccc(C#N)c1C(F)(F)F [EM-8798],CX Agonistic activity % Stimulation Bulbo,[1],114%
same,CX Agonistic activity % Stimulation SV,[1],25%
same,CX Agonistic activity % Stimulation Prostate,[1],49%
same,IC50,[2]; [4],130 nM
same,Human Androgen Receptor Binding RBA (%) R1881 = 100,[3]; transfected cells,219%
Cc1c(N2C(=O)C(C)(C)N(CCCOc3ccc(-c4cccnc4)cc3F)C2=S)ccc(C#N)c1Cl [EM-8714],CX Agonistic activity % Stimulation Bulbo,[1],78%
same,CX Agonistic activity % Stimulation SV,[1],18%
same,CX Agonistic activity % Stimulation Prostate,[1],45%
same,IC50,[2]; [4],97 nM
same,Human Androgen Receptor Binding RBA (%) R1881 = 100,[3]; […],355%
Cc1c(N2C(=O)N(CCCOc3ccc(-c4cc[n+]([O-])cc4)cc3F)C(C)(C)C2=O)ccc(C#N)c1Cl [EM-9301],CX Agonistic activity % Stimulation Bulbo,[1],104 ± 17 (n = 2) %
same,CX Agonistic activity % Stimulation SV,[1],29 ± 2 (n = 2) %
same,CX Agonistic activity % Stimulation Prostate,[1],42 ± 1 (n = 2) %
same,IC50,[2]; [4],55.7 nM
same,Human Androgen Receptor Binding RBA (%) R1881 = 100,[3]; […],34.6%
Cc1c(N2C(=O)N(CCCOc3ccc(-c4ccncc4Cl)cc3)C(C)(C)C2=O)ccc(C#N)c1Cl [EM-9310],CX Agonistic activity % Stimulation Bulbo,[1],109 ± 9 (n = 2) %
same,CX Agonistic activity % Stimulation SV,[1],18 ± 2 (n = 2) %
same,CX Agonistic activity % Stimulation Prostate,[1],44 ± 7 (n = 2) %
same,IC50,[2]; [4],60 nM
same,Human Androgen Receptor Binding RBA (%) R1881 = 100,[3]; […],92.8%
Cc1c(N2C(=O)C(C)(C)N(CCCOc3ccc(-c4ccncc4)cc3C(F)(F)F)C2=S)ccc(C#N)c1C(F)(F)F [EM-8772],CX Agonistic activity % Stimulation Bulbo,[1],104%
same,CX Agonistic activity % Stimulation SV,[1],15%
same,CX Agonistic activity % Stimulation Prostate,[1],29%
same,IC50,"[2]; DHT (0.3 nM)-stimulated cell number, read-out: Shionogi Antiandrogenic Activity IC50",137 nM
same,Human Androgen Receptor Binding RBA (%) R1881 = 100,[3]; transfected cells,2.6%
Cc1c(N2C(=O)C(C)(C)N(CCCOc3ccc(-c4ccncc4)cc3F)C2=S)ccc(C#N)c1Cl [EM-8723],CX Agonistic activity % Stimulation Bulbo,[1],129%
same,CX Agonistic activity % Stimulation SV,[1],56%
same,CX Agonistic activity % Stimulation Prostate,[1],60%
same,IC50,[2]; [4],120 nM
same,Human Androgen Receptor Binding RBA (%) R1881 = 100,[3]; […],408%
Cc1c(N2C(=O)N(CCCOc3ccc(-c4ccncc4)c(F)c3)C(C)(C)C2=O)ccc(C#N)c1Cl [EM-9253],CX Agonistic activity % Stimulation Bulbo,[1],114±18% and 114 ± 18 (n = 2) %
same,CX Agonistic activity % Stimulation SV,[1],18 ± 2 (n = 2) %
same,CX Agonistic activity % Stimulation Prostate,[1],34 ± 1 (n = 2) %
same,IC50,[2]; [4],29.9 nM
same,Human Androgen Receptor Binding RBA (%) R1881 = 100,[3]; […],125%
same,times more potent than OH-flutamide on the human AR (RBA ratio),[3]; versus hydroxyflutamide,595 times
Cc1c(N2C(=O)C(C)(C)N(CCCOc3ccc(-c4ccncc4)c(C#N)c3)C2=S)ccc(C#N)c1Cl [EM-8933],CX Agonistic activity % Stimulation Bulbo,[1],136%
same,CX Agonistic activity % Stimulation SV,[1],43%
same,CX Agonistic activity % Stimulation Prostate,[1],46%
same,IC50,[2]; [4],110 nM
same,Human Androgen Receptor Binding RBA (%) R1881 = 100,[3]; […],134%
Cc1c(N2C(=O)N(CCCOc3ccc4cccnc4c3)C(C)(C)C2=O)ccc(C#N)c1Cl [EM-8786],CX Agonistic activity % Stimulation Bulbo,[1],124 ± 32 (n = 2) %
same,CX Agonistic activity % Stimulation SV,[1],10 ± 10 (n = 2) %
same,CX Agonistic activity % Stimulation Prostate,[1],35 ± 10 (n = 2) %
same,IC50,[2]; [4],191 ± 87 nM
same,Human Androgen Receptor Binding RBA (%) R1881 = 100,[3]; transfected cells,8.9 ± 0.2 (n = 2) %
Cc1c(N2C(=O)C(C)(C)N(CCCOc3ccc(Oc4ccc(Cl)nc4)nc3)C2=S)ccc(C#N)c1Cl [EM-8828],CX Agonistic activity % Stimulation Bulbo,[1],161%
same,CX Agonistic activity % Stimulation SV,[1],31%
same,CX Agonistic activity % Stimulation Prostate,[1],40%
same,IC50,[2]; [4],96.5 nM
same,Human Androgen Receptor Binding RBA (%) R1881 = 100,[3]; […],112%
Cc1c(N2C(=O)C(C)(C)N(CCCOc3ccc(-c4ccncc4Cl)cc3)C2=S)ccc(C#N)c1Cl [EM-8977],CX Agonistic activity % Stimulation Bulbo,[1],194%
same,CX Agonistic activity % Stimulation SV,[1],65%
same,CX Agonistic activity % Stimulation Prostate,[1],72%
same,IC50,[2]; [4],100 nM
same,Human Androgen Receptor Binding RBA (%) R1881 = 100,[3]; […],89.8%
Cc1c(N2C(=O)N(CCCOc3ccc(-c4cc[n+]([O-])cc4)c(Cl)c3)C(C)(C)C2=O)ccc(C#N)c1Cl [EM-9291],CX Agonistic activity % Stimulation Bulbo,[1],91 ± 2 (n = 2) %
same,CX Agonistic activity % Stimulation SV,[1],21 ± 7 (n = 2) %
same,CX Agonistic activity % Stimulation Prostate,[1],47 ± 7 (n = 2) %
same,IC50,[2]; [4],75.5 nM
same,Human Androgen Receptor Binding RBA (%) R1881 = 100,[3]; transfected cells,64.2%
Cc1c(N2C(=O)C(C)(C)N(CCCOc3ccc(-c4ccncc4)c(C(F)(F)F)c3)C2=S)ccc(C#N)c1Cl [EM-8820],CX Agonistic activity % Stimulation Bulbo,[1],154%
same,CX Agonistic activity % Stimulation SV,[1],58%
same,CX Agonistic activity % Stimulation Prostate,[1],33%
same,IC50,[2]; [4],21.8 nM
same,Human Androgen Receptor Binding RBA (%) R1881 = 100,[3]; transfected cells,263%
Cc1c(N2C(=O)C(C)(C)N(CCCOc3ccc(-c4ccncc4)cc3C(F)(F)F)C2=S)ccc(C#N)c1Cl [EM-8773],CX Agonistic activity % Stimulation Bulbo,[1],123%
same,CX Agonistic activity % Stimulation SV,[1],30%
same,CX Agonistic activity % Stimulation Prostate,[1],30%
same,IC50,[2]; [4],125 nM
same,Human Androgen Receptor Binding RBA (%) R1881 = 100,[3]; […],28.1%
Cc1c(N2C(=O)C(C)(C)N(CCCOc3ccc(-c4ccc(N(C)C)nc4)c(F)c3)C2=S)ccc(C#N)c1Cl [EM-8996],CX Agonistic activity % Stimulation Bulbo,[1],131%
same,CX Agonistic activity % Stimulation SV,[1],53%
same,CX Agonistic activity % Stimulation Prostate,[1],49%
same,IC50,[2]; [4],100 nM
same,Human Androgen Receptor Binding RBA (%) R1881 = 100,[3]; transfected cells,48.9%
CC1(C)C(=O)N(c2ccc(C#N)c(C(F)(F)F)c2)C(=S)N1CCCOc1ccc2cccnc2c1 [EM-8991],CX Agonistic activity % Stimulation Bulbo,[1],1%
same,CX Agonistic activity % Stimulation SV,[1],2%
same,CX Agonistic activity % Stimulation Prostate,[1],2%
same,IC50,[2]; [4],38.5 nM
same,Human Androgen Receptor Binding RBA (%) R1881 = 100,[3]; […],28.5%
